The values below come from PMC3351444, “Molecular Evolution of a Peptide GPCR Ligand Driven by Artificial Neural Networks” (PLoS ONE, 2012).

In general, EC50 refers to the concentration that produces a half-maximal response. By half-life is commonly meant the time needed for the level to fall by half in the phase considered.

In one data set the target is T1, human CMKLR1 (Homo sapiens, UniProt Q99788).
T1 construct: host or cells: HEK293A (Invitrogen), stably expressing human Gα15
T1 sequence (Q99788 1-373): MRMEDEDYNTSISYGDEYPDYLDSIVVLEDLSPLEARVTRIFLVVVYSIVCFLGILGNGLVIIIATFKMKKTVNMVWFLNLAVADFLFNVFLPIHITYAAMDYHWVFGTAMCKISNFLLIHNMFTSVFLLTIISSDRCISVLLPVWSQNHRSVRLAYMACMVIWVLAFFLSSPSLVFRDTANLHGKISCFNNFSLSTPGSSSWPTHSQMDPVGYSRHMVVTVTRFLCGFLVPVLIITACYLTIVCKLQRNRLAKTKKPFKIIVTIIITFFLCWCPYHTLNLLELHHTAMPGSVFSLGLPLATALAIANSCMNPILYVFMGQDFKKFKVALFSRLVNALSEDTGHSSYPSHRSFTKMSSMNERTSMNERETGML
The data set can be described thus: Ca2+ mobilization (CellLux imaging) agonist assay in HEK293A cells expressing CMKLR1 and Gα15. The data set is classed as cell-based. The conditions noted are these: Ca2+ mobilization, CMKLR1, decimal comma; for EC50: NR where no EC50 is given, read-out: EC50. As for the experimental part: HEK293A cells (Invitrogen) expressing CMKLR1 and Gα15 were seeded at 5*10^4 cells/well in a poly-D-lysine coated 96-well black well/clear bottom plate (BD Falcon) and cultured overnight. From eighteen to twenty-four hours later, cells were loaded with FLUO4-AM (Invitrogen). Then the cells were washed two times with C1 solution (130 mM NaCl, 5 mM KCl, 10 mM HEPES pH 7.4, 2 mM CaCl2, and 10 mM Glucose). After the final wash, a 100 µL of residual volume remained on the cells. Peptides were dissolved in 10% DMSO to a concentration of 1 mM and were diluted in C1 solution with 0.1 % BSA. They were aliquoted as 2x solutions in 96-well plates and were simultaneously transferred by the robotic system within the imager from the ligand plate to the cell plate. […] Fluorescence data was generated in duplicate and experiments were repeated for at least three times. […] For the calculation of concentration-response curves, signals of two wells receiving the same concentration of test substances were averaged and the fluorescence changes of corresponding buffer C1 wells were subtracted. Signals were normalized to background fluorescence. For the calculation of EC50 values, plots of amplitude versus concentrations were prepared in SigmaPlot 11.
Background: Calcium assays in cells follow changes in intracellular calcium, usually with a dye or a luminescent sensor.

Data set [1] in a line: In vitro peptide stability in human serum (RP-HPLC). The following applies: for half-life at 50 µg/mL: human; for t1/2: metabolic stability in human serum.

Square brackets hold non-standard residues; d marks the D form. Ends that are not written are not given here. Peptide text beside a SMILES is read from it.

As to `CC(C)C[C@H](NC(=O)[C@@H](N)Cc1ccc(O)cc1)C(=O)N1CCC[C@H]1C(=O)NCC(=O)N[C@@H](CCC(N)=O)C(=O)N[C@@H](Cc1ccccc1)C(=O)N[C@H](Cc1ccccc1)C(=O)N[C@@H](Cc1ccccc1)C(=O)N[C@@H](CO)C(=O)O` [compound 28] (H-YLPGQF[dF]FS-OH; N-terminus assumed), at human CMKLR1, the max response was 0,97 DF/F0 and the 50% effective concentration (EC50) came to 0.77 nM. The compound further yielded a half-life at 50 µg/mL in data set [1] (human serum, 25% (v/v) in RPMI) of 24 min.

On to YLPGQGAFK-OH [compound 69], for which, on human CMKLR1, the max response is recorded as 0,99 DF/F0 and the half-maximal effective concentration (EC50) was 1870 nM. Further, the half-life at 50 µg/mL in data set [1] (human serum, 25% (v/v) in RPMI) came to 22 min.

Consider `CC(C)C[C@H](NC(=O)[C@H](N)Cc1ccccc1)C(=O)N1CCC[C@H]1C(=O)NCC(=O)N[C@@H](CCC(N)=O)C(=O)N[C@@H](Cc1ccc(O)cc1)C(=O)N[C@@H](C)C(=O)N[C@@H](Cc1ccccc1)C(=O)N[C@@H](Cc1ccccc1)C(=O)O` [compound 55] (H-[dF]LPGQYAFF-OH; N-terminus assumed), for which, on human CMKLR1, the max response is 0,73 DF/F0 and the EC50 was 92.9 nM. Moreover, the half-life at 50 µg/mL in data set [1] (human serum, 25% (v/v) in RPMI) turned out to be 230 min.

As to `CC(C)C[C@H](NC(=O)[C@@H](N)Cc1ccc(O)cc1)C(=O)N1CCC[C@H]1C(=O)NCC(=O)N[C@@H](CCC(N)=O)C(=O)N[C@@H](Cc1ccccc1)C(=O)N[C@H](Cc1c[nH]c2ccccc12)C(=O)N[C@@H](Cc1ccccc1)C(=O)N[C@@H](CO)C(=O)O` [compound 41] (H-YLPGQF[dW]FS-OH; N-terminus assumed), on human CMKLR1, the max response is 0,94 DF/F0 and the EC50 is 7.23 nM. In data set [1] (human serum, 25% (v/v) in RPMI), the half-life at 50 µg/mL was 45 min.

In the case of `CC(C)C[C@H](NC(=O)[C@@H](N)Cc1ccc(O)cc1)C(=O)N1CCC[C@H]1C(=O)NCC(=O)N[C@@H](CCC(N)=O)C(=O)N[C@@H](Cc1ccc(O)cc1)C(=O)N[C@H](Cc1c[nH]c2ccccc12)C(=O)N1CCC[C@H]1C(=O)N[C@H](Cc1ccccc1)C(=O)O` [compound 126] (H-YLPGQY[dW]P[dF]-OH; N-terminus assumed), at human CMKLR1, the max response is on record as 1,33 DF/F0 and the EC50 came out at 21 nM. The half-life at 50 µg/mL in data set [1] (human serum, 25% (v/v) in RPMI) came to 47 min.

Take `CC(C)C[C@H](N)C(=O)N[C@H](Cc1c[nH]c2ccccc12)C(=O)NCC(=O)NCC(=O)N1CCC[C@H]1C(=O)N[C@@H](Cc1ccc(O)cc1)C(=O)N[C@H](Cc1c[nH]c2ccccc12)C(=O)N[C@@H](Cc1ccc(O)cc1)C(=O)N[C@H](CO)C(=O)O` [compound 128] (H-L[dW]GGPY[dW]Y[dS]-OH; N-terminus assumed): at human CMKLR1, the max response is listed as 1,45 DF/F0 and the EC50 came out at 38.7 nM. In data set [1] (human serum, 25% (v/v) in RPMI), this compound displayed a half-life at 50 µg/mL of 480 min.

In the case of `CSCC[C@H](NC(=O)[C@H](N)Cc1ccc(O)cc1)C(=O)N1CCC[C@H]1C(=O)NCC(=O)N[C@@H](CCC(N)=O)C(=O)N[C@@H](Cc1ccc(O)cc1)C(=O)N[C@@H](C)C(=O)N[C@@H](Cc1ccccc1)C(=O)N[C@@H](CO)C(=O)O` [compound 85] (H-[dY]MPGQYAFS-OH; N-terminus assumed), on human CMKLR1, the max response is 1,78 DF/F0 and the 50% effective concentration (EC50) is 11.7 nM. In data set [1] (human serum, 25% (v/v) in RPMI), this compound gave a half-life at 50 µg/mL of 75 min.

As to `CC(C)[C@H](NC(=O)[C@@H](N)Cc1ccc(O)cc1)C(=O)N1CCC[C@H]1C(=O)NCC(=O)N[C@@H](CCC(N)=O)C(=O)N[C@@H](Cc1ccccc1)C(=O)N[C@@H](C)C(=O)N[C@@H](Cc1ccccc1)C(=O)N[C@H](Cc1ccccc1)C(=O)O` [compound 35] (H-YVPGQFAF[dF]-OH; N-terminus assumed), the max response on human CMKLR1 is on record as 0,96 DF/F0. The compound further had a t1/2 in data set [1] of 42 min.

Consider `CC(C)C[C@H](NC(=O)[C@H](Cc1ccc(O)cc1)NC(=O)[C@H](CCC(N)=O)NC(=O)[C@@H](Cc1ccccc1)NC(=O)[C@@H](CC(=O)O)NC(=O)[C@@H]1CCCN1C(=O)[C@H](CC(C)C)NC(=O)[C@@H](N)Cc1ccc(O)cc1)C(=O)N1CCC[C@H]1C(=O)O` [compound 148] (H-YLP[dD][dF]QYLP-OH; N-terminus assumed), for which, at human CMKLR1, the max response is 1,74 DF/F0 and the EC50 was 207 nM. Also, in data set [1] (human serum, 25% (v/v) in RPMI), the half-life at 50 µg/mL turned out to be 32 min.

Regarding `CC(C)C[C@H](NC(=O)[C@H](N)Cc1ccc(O)cc1)C(=O)N1CCC[C@@H]1C(=O)NCC(=O)N[C@@H](CCC(N)=O)C(=O)N[C@@H](Cc1ccc(O)cc1)C(=O)N[C@@H](C)C(=O)N[C@@H](Cc1ccccc1)C(=O)N[C@@H](CO)C(=O)O` [compound 104] (H-[dY]L[dP]GQYAFS-OH; N-terminus assumed), on human CMKLR1, the max response is on record as 1,73 DF/F0 and the half-maximal effective concentration (EC50) was 246 nM. The same compound showed a half-life at 50 µg/mL in data set [1] (human serum, 25% (v/v) in RPMI) of 80 min.

Consider `CC(C)[C@H](N)C(=O)N1CCC[C@H]1C(=O)NCC(=O)N[C@@H](CCC(N)=O)C(=O)N[C@@H](Cc1ccc(O)cc1)C(=O)N[C@@H](C)C(=O)N[C@@H](Cc1ccccc1)C(=O)N[C@H](CO)C(=O)N[C@H](CO)C(=O)O` [compound 99] (H-VPGQYAF[dS][dS]-OH; N-terminus assumed), for which, at human CMKLR1, the max response was 1,7 DF/F0 and the EC50 was 129 nM. In data set [1] (human serum, 25% (v/v) in RPMI), this compound returned a half-life at 50 µg/mL of 43 min.

For the compound `CC(C)C[C@H](NC(=O)[C@H](N)Cc1ccc(O)cc1)C(=O)N1CCC[C@H]1C(=O)N[C@H](CO)C(=O)N[C@@H](CCC(N)=O)C(=O)N[C@@H](Cc1ccc(O)cc1)C(=O)N[C@@H](C)C(=O)N[C@@H](Cc1ccccc1)C(=O)N[C@H](CO)C(=O)O` [compound 121] (H-[dY]LP[dS]QYAF[dS]-OH; N-terminus assumed), the max response on human CMKLR1 was 1,6 DF/F0. The t1/2 in data set [1] stood at 1408 min.

For the compound `CC(C)C[C@H](NC(=O)[C@@H](N)Cc1ccccc1)C(=O)N1CCC[C@H]1C(=O)NCC(=O)N[C@@H](CCC(N)=O)C(=O)NCC(=O)N[C@H](Cc1ccccc1)C(=O)N[C@@H](Cc1ccccc1)C(=O)N[C@@H](CO)C(=O)O` [compound 61] (H-FLPGQG[dF]FS-OH; N-terminus assumed), at human CMKLR1, the max response is recorded as 0,73 DF/F0 and the concentration for a half-maximal effect (EC50) was determined as 456 nM. In data set [1] (human serum, 25% (v/v) in RPMI), this compound had a half-life at 50 µg/mL of 41 min.

On to `CC(C)C[C@H](NC(=O)[C@@H](N)Cc1ccc(O)cc1)C(=O)N1CCC[C@H]1C(=O)NCC(=O)N[C@@H](CCC(N)=O)C(=O)N[C@@H](Cc1ccc(O)cc1)C(=O)N[C@H](Cc1c[nH]c2ccccc12)C(=O)N[C@@H](Cc1ccccc1)C(=O)N[C@H](Cc1ccccc1)C(=O)O` [compound 122] (H-YLPGQY[dW]F[dF]-OH; N-terminus assumed), for which the max response on human CMKLR1 is 1,54 DF/F0. In data set [1], this compound came in with a t1/2 of 159 min.

In the case of `CC(C)C[C@H](N)C(=O)N[C@H](Cc1c[nH]c2ccccc12)C(=O)NCC(=O)NCC(=O)N1CCC[C@H]1C(=O)N[C@@H](Cc1ccc(O)cc1)C(=O)N[C@@H](C)C(=O)N[C@H](CC(=O)O)C(=O)N[C@@H](CO)C(=O)O` [compound 131] (H-L[dW]GGPYA[dD]S-OH; N-terminus assumed), on human CMKLR1, the max response is on record as 1,67 DF/F0 and the half-maximal effective concentration (EC50) is 53.2 nM. Besides, in data set [1] (human serum, 25% (v/v) in RPMI), the half-life at 50 µg/mL is 551 min.

As for `CC(C)C[C@H](NC(=O)[C@H](N)Cc1ccc(O)cc1)C(=O)N1CCC[C@H]1C(=O)N[C@H](CO)C(=O)N[C@@H](CCC(N)=O)C(=O)N[C@@H](Cc1ccc(O)cc1)C(=O)N[C@@H](C)C(=O)N[C@@H](Cc1ccccc1)C(=O)N[C@H](Cc1ccccc1)C(=O)O` [compound 120] (H-[dY]LP[dS]QYAF[dF]-OH; N-terminus assumed), at human CMKLR1, the max response was 1,97 DF/F0. The half-life at 50 µg/mL in data set [1] (serum) was determined as 1690 min.

As for YLPGQFAFL-OH [compound 39], at human CMKLR1, the max response was 1,01 DF/F0 and the EC50 amounted to 5.85 nM. Further, the half-life at 50 µg/mL in data set [1] (human serum, 25% (v/v) in RPMI) amounted to 24 min.
